As usually defined, the EC50 is the midpoint of the concentration-response curve.

Results on 21 compounds are retold here after patent US20250100998A1, “PARP7 INHIBITORS” (Gilead Sciences, Inc., priority 2023, published 2025).

This experiment concerns STAT1 (phosphorylated at Tyr701) in NCI-H1373 cells. Description: Phospho-STAT1 (Tyr701) LANCE Ultra TR-FRET detection assay. The class given is cell-based. Conditions: Homo sapiens, NCI-H1373, 48 h, induction of pSTAT1 in NCI-H1373 cells, 48 hours incubation; normalized to 10 uM positive control and DMSO; 4-parameter fit; read-out: NH1373 pSTAT1 EC50. The procedure: Phospho-STAT1 (Tyr701 LANCE Ultra TR-FRET Detection Assay
LANCE Ultra phospho-STAT1 (Tyr701) kits are designed for the detection of phosphorylated STAT1 in cell lysates using a simple, homogeneous LANCE Ultra sandwich assay (Cat. #TRF4028M). This assay is intended for assessing compound induction of endogenous levels of cellular STAT1 (phosphorylated at Tyr701) in NCI-H1373 cells. The NCI-H1373 cells are cultured in RPMI 1640 media containing 10% heat inactivated FBS, GlutaMAX, 1% Penicillin-Streptomycin. An Echo acoustic liquid handler is used to transfer 60 nanoliters of compound dilutions using the Echo Qualified, 384-well polypropylene microplate clear flat bottom source plates into a Greiner (#781080) cell culture microplate. NCI-H1373 cells are seeded into these compound-spotted culture plates at 30,000 cells/well in a 60 uL volume in growth media. The plates are incubated in a 5% CO2 humidified incubator at 37° C. for 48 hours. […] Briefly, […] of supplemented lysis buffer is added to each well and allowed to shake for 1 hour at 400 rpm. Next, 5 ul of remixed antibody solutions (vol/vol) prepared in detection buffer are added to each well and allowed to incubate at room temperature overnight. After spinning the plate down at 300 rpm for 1 min, the plate is read on an EnVision plate reader set up for Eu3+ Cryptate and fluorescence emission is measured at two different wavelengths (665 nm and 620 nm). The HTRF ratio is then calculated ([…]) for each well to determine the amount of pSTAT1 in the cell lysate, and the data is then normalized to 10 uM (S)-5-((1-(3-oxo-3-(4-(5-(trifluoromethyl)pyrimidin-2-yl)piperazin-1-yl)propoxy)propan-2-yl)amino)-4-(trifluoromethyl)pyridazin-3(2H)-one positive and DMSO negative controls. The values were then plotted as a function of compound concentration and a 4-parameter fit was applied to derive the EC50 values.
As for `[2H]C([2H])([2H])Oc1cnc(-c2cc3c(F)cn(C[C@@H]4CCC[C@H](Nc5cn[nH]c(=O)c5C(F)(F)F)C4)c(=O)c3cc2F)nc1` [Example 45, 4,7-difluoro-2-[[(1R,3S)-3-[[6-oxo-5-(trifluoromethyl)-1H-pyridazin-4-yl]amino]cyclohexyl]methyl]-6-[5-(trideuteriomethoxy)pyrimidin-2-yl]isoquinolin-1-one], the EC50 came to 10.5 nM.

With `[2H]C([2H])([2H])Oc1cnc(-c2cc3c(F)cn(C[C@@H]4CCC[C@H](Oc5cn[nH]c(=O)c5C(F)(F)F)C4)c(=O)c3c(F)c2F)nc1` [Example 51, 4,7,8-trifluoro-6-(5-(methoxy-d3)pyrimidin-2-yl)-2-(((1R,3S)-3-((6-oxo-5-(trifluoromethyl)-1,6-dihydropyridazin-4-yl)oxy)cyclohexyl)methyl)isoquinolin-1(2H)-one], the EC50 worked out at 1.22 nM.

Regarding `O=c1[nH]ncc(O[C@H]2CCC[C@@H](Cn3cc(F)c4cc(-c5ncc(OC(F)(F)F)cn5)c(F)c(F)c4c3=O)C2)c1C(F)(F)F` [Example 49, 4,7,8-trifluoro-2-(((1R,3S)-3-((6-oxo-5-(trifluoromethyl)-1,6-dihydropyridazin-4-yl)oxy)cyclohexyl)methyl)-6-(5-(trifluoromethoxy)pyrimidin-2-yl)isoquinolin-1(2H)-one], the EC50 was found to be 4.89 nM.

Consider `O=c1[nH]ncc(O[C@H]2CCC[C@@H](Cn3ccc4cc(-c5ncc(C(F)F)cn5)c(F)c(F)c4c3=O)C2)c1C(F)(F)F` [Example 54, 6-(5-(difluoromethyl)pyrimidin-2-yl)-7,8-difluoro-2-(((1R,3S)-3-((6-oxo-5-(trifluoromethyl)-1,6-dihydropyridazin-4-yl)oxy)cyclohexyl)methyl)isoquinolin-1(2H)-one], for which the EC50 is 2.38 nM.

As to `CC(O)(c1cnc(-c2cc3ccn(C[C@@H]4CCC[C@H](Nc5cn[nH]c(=O)c5C(F)(F)F)C4)c(=O)c3cc2F)nc1)C(F)F` (stereo partly drawn) [Example 27, 6-(5-(1,1-difluoro-2-hydroxypropan-2-yl)pyrimidin-2-yl)-7-fluoro-2-(((1R,3S)-3-((6-oxo-5-(trifluoromethyl)-1,6-dihydropyridazin-4-yl)amino)cyclohexyl)methyl)isoquinolin-1(2H)-one], the EC50 was 16.8 nM.

With `CC(C)(O)COc1cnc(-c2cc3ccn(C[C@@H]4CCC[C@H](Nc5cn[nH]c(=O)c5C(F)(F)F)C4)c(=O)c3c(F)c2F)nc1` [Example 16, 7,8-difluoro-6-(5-(2-hydroxy-2-methylpropoxy)pyrimidin-2-yl)-2-(((1R,3S)-3-((6-oxo-5-(trifluoromethyl)-1,6-dihydropyridazin-4-yl)amino)cyclohexyl)methyl)isoquinolin-1(2H)-one], the EC50 amounted to 31.3 nM.

For the compound `[2H]C([2H])([2H])Oc1cnc(-c2cc3c(F)cn(C[C@@H]4CCC[C@H](Nc5cn[nH]c(=O)c5C(F)(F)F)C4)c(=O)c3c(F)c2F)nc1` [Example 46, 4,7,8-trifluoro-2-[[(1R,3S)-3-[[6-oxo-5-(trifluoromethyl)-1H-pyridazin-4-yl]amino]cyclohexyl]methyl]-6-[5-(trideuteriomethoxy)pyrimidin-2-yl]isoquinolin-1-one], the EC50 worked out at 1.19 nM.

Take `O=c1[nH]ncc(N[C@H]2CCC[C@@H](Cn3cc(F)c4cc(-c5ncc(OCCO)cn5)c(F)cc4c3=O)C2)c1C(F)(F)F` [Example 38]: the EC50 was determined as 12.5 nM.

Consider `Cc1nc(-c2cc3ccn(C[C@@H]4CCC[C@H](Nc5cn[nH]c(=O)c5C(F)(F)F)C4)c(=O)c3cc2F)ncc1Cl` [Example 7, 6-(5-chloro-4-methylpyrimidin-2-yl)-7-fluoro-2-(((1R,3S)-3-((6-oxo-5-(trifluoromethyl)-1,6-dihydropyridazin-4-yl)amino)cyclohexyl)methyl)isoquinolin-1(2H)-one], for which the EC50 is 6.03 nM.

`O=c1[nH]ncc(N[C@H]2CCC[C@@H](Cn3ccc4cc(-c5ncc6c(n5)NCCO6)c(F)cc4c3=O)C2)c1C(F)(F)F` [Example 9, 6-(7,8-dihydro-6H-pyrimido[5,4-b][1,4]oxazin-2-yl)-7-fluoro-2-(((1R,3S)-3-((6-oxo-5-(trifluoromethyl)-1,6-dihydropyridazin-4-yl)amino)cyclohexyl)methyl)isoquinolin-1(2H)-one]: the EC50 was 6.39 nM.

Take `COc1cnc(-c2cc3c(Cl)cn(C[C@@H]4CCC[C@H](Nc5cn[nH]c(=O)c5C(F)(F)F)C4)c(=O)c3cc2F)nc1` [Example 58, 4-chloro-7-fluoro-6-(5-methoxypyrimidin-2-yl)-2-[[(1R,3S)-3-[[6-oxo-5-(trifluoromethyl)-1H-pyridazin-4-yl]amino]cyclohexyl]methyl]isoquinolin-1-one]: the EC50 stood at 5.91 nM.

On to `O=c1[nH]ncc(N[C@H]2CCC[C@@H](Cn3cc(F)c4cc(-c5ncc(C(F)F)cn5)c(F)c(F)c4c3=O)C2)c1C(F)(F)F` [Example 34, 6-(5-(difluoromethyl)pyrimidin-2-yl)-4,7,8-trifluoro-2-(((1R,3S)-3-((6-oxo-5-(trifluoromethyl)-1,6-dihydropyridazin-4-yl)amino)cyclohexyl)methyl)isoquinolin-1(2H)-one], for which the EC50 was 0.952 nM.

For the compound `O=C1c2cc(F)c(-c3ncc(C(F)F)cn3)cc2CCN1C[C@@H]1CCC[C@H](Nc2cn[nH]c(=O)c2C(F)(F)F)C1` [Example 72, 6-(5-(difluoromethyl)pyrimidin-2-yl)-7-fluoro-2-(((1R,3S)-3-((6-oxo-5-(trifluoromethyl)-1,6-dihydropyridazin-4-yl)amino)cyclohexyl)methyl)-3,4-dihydroisoquinolin-1(2H)-one], the EC50 was found to be 3.74 nM.

Regarding `O=c1[nH]ncc(N[C@H]2CCC[C@@H](Cn3cc(Cl)c4cc(-c5ncc(C(F)F)cn5)c(F)c(F)c4c3=O)C2)c1C(F)(F)F` [Example 61], the EC50 turned out to be 1.33 nM.

Take `O=C1c2cc(F)c(-c3ncc(C(F)(F)F)cn3)cc2CCN1C[C@@H]1CCC[C@H](Nc2cn[nH]c(=O)c2C(F)(F)F)C1` [Example 69, 7-fluoro-2-[[(1R,3S)-3-[[6-oxo-5-(trifluoromethyl)-1H-pyridazin-4-yl]amino]cyclohexyl]methyl]-6-[5-(trifluoromethyl)pyrimidin-2-yl]-3,4-dihydroisoquinolin-1-one]: the EC50 is 4.56 nM.

Take `COc1nc(-c2cc3ccn(C[C@@H]4CCC[C@H](Nc5cn[nH]c(=O)c5C(F)(F)F)C4)c(=O)c3cc2F)ncc1C#N` [Example 3, 2-(7-fluoro-1-oxo-2-(((1R,3S)-3-((6-oxo-5-(trifluoromethyl)-1,6-dihydropyridazin-4-yl)amino)cyclohexyl)methyl)-1,2-dihydroisoquinolin-6-yl)-4-methoxypyrimidine-5-carbonitrile]: the EC50 worked out at 3.85 nM.

As for `[2H]C([2H])([2H])Oc1cnc(-c2cc3c(cc2F)C(=O)N(C[C@@H]2CCC[C@H](Nc4cn[nH]c(=O)c4C(F)(F)F)C2)CC3)nc1` [Example 71, 7-fluoro-2-[[(1R,3S)-3-[[6-oxo-5-(trifluoromethyl)-1H-pyridazin-4-yl]amino]cyclohexyl]methyl]-6-[5-(trideuteriomethoxy)pyrimidin-2-yl]-3,4-dihydroisoquinolin-1-one], the EC50 turned out to be 7.6 nM.

Regarding `CS(=O)(=O)c1cnc(-c2cc3ccn(C[C@@H]4CCC[C@H](Nc5cn[nH]c(=O)c5C(F)(F)F)C4)c(=O)c3cc2F)nc1` [Example 13, 7-fluoro-6-(5-(methylsulfonyl)pyrimidin-2-yl)-2-(((1R,3S)-3-((6-oxo-5-(trifluoromethyl)-1,6-dihydropyridazin-4-yl)amino)cyclohexyl)methyl)isoquinolin-1(2H)-one], the EC50 turned out to be 6.21 nM.

In the case of `CC(F)(F)c1cnc(-c2cc3ccn(C[C@@H]4CCC[C@H](Oc5cn[nH]c(=O)c5C(F)(F)F)C4)c(=O)c3c(F)c2F)nc1` [Example 56, 6-(5-(1,1-difluoroethyl)pyrimidin-2-yl)-7,8-difluoro-2-(((1R,3S)-3-((6-oxo-5-(trifluoromethyl)-1,6-dihydropyridazin-4-yl)oxy)cyclohexyl)methyl)isoquinolin-1(2H)-one], the EC50 turned out to be 0.915 nM.

Take `O=c1[nH]ncc(N[C@H]2CCC[C@@H](Cn3cc(Cl)c4cc(-c5ncc(C(F)F)cn5)c(F)cc4c3=O)C2)c1C(F)(F)F` [Example 60, 4-chloro-6-(5-(difluoromethyl)pyrimidin-2-yl)-7-fluoro-2-(((1R,3S)-3-((6-oxo-5-(trifluoromethyl)-1,6-dihydropyridazin-4-yl)amino)cyclohexyl)methyl)isoquinolin-1(2H)-one]: the EC50 stood at 6.23 nM.

Regarding `CC(C)(O)c1cnc(-c2cc3ccn(C[C@@H]4CCC[C@H](Nc5cn[nH]c(=O)c5C(F)(F)F)C4)c(=O)c3c(F)c2F)nc1` [Example 18, 7,8-difluoro-6-(5-(2-hydroxypropan-2-yl)pyrimidin-2-yl)-2-(((1R,3S)-3-((6-oxo-5-(trifluoromethyl)-1,6-dihydropyridazin-4-yl)amino)cyclohexyl)methyl)isoquinolin-1(2H)-one], the EC50 came out at 3.23 nM.
